Read-outs that look alike come from different tables or passages of the source. Values belong to the compound of their own block, whether it stands above or below them.
How the values were obtained:
[1] = target: T1, GST-cGB-PDE5 fusion protein (cGMP binding sites of human PDE5A) (Homo sapiens, UniProt O76074); experiment: cGMP binding assay (3H-cGMP competition)
T1 construct: made in house; host or cells: E. coli BL21 (DE3)

[2] = system: PKG in SW480 colon cancer cells; experiment: PKG assay of drug-treated cell lysates (GST-cGB-PDE5 solid phase substrate); type: cell-based, human; conditions: 48 hrs, exisulind 200, 400, 600 μM, E4021 0.1, 1, 10 μM, with and without added cGMP
Experimental: To test the effect of cGMP-specific PDE inhibition on neoplasia containing the APC mutation, SW480 colon cancer cells were employed. SW 480 is known to contain the APC mutation. About 5 million SW480 cells in RPMI 5% serum are added to each of 8 dishes:
2-10 cm dishes—30 μL DMSO vehicle control (without drug),
3-10 cm dishes—200 μM, 400 μM, 600 μM exisulind in DMSO, and
The dishes are incubated for 48 hrs at 37° C. in 5% CO2 incubator.
The liquid media are aspirated from the dishes (the cells will attach themselves to the dishes). The attached cells are washed in each dish with cold PBS, and 200 μL cell lysis buffer (i.e., 50 mM Tris-HCl, 1% NP-40, 150 mM NaCl, 1 mM EDTA, 1 mM Na3VO4, 1 mM NaF, 500 μM IBMX with proteinase inhibitors) is added to each dish. Immediately after the cell lysis buffer is added, the lysed cells are collected by scraping the cells off each dish. The cell lysate from each dish is transferred to a microfuge tube, and the microfuge tubes are incubated at 4° C. for 15 minutes while gently agitating the microfuge tubes to allow the cells to lyse completely. […]
For each control or drug cell lysate sample to be evaluated, the reaction is started by adding phosphorylation buffer containing 10 μCi ^32P-γ-ATP solution (200 μM ATP, 4.5 mM MgCl; 5 mM KH2PO4; 5 mM K2HPO4;) to each mixture. […]

[3] = system: JNK1 in SW480 colon cancer cells; experiment: JNK1 immunoprecipitation in vitro kinase assay with GST-c-Jun(1-79); type: cell-based, human; conditions: for JNK1 activation by cGMP modulators: SW480 cells, one hour, dbcGMP 500 μM, dbcAMP 500 μM, YC-1 50 μM, MY-5445 50 μM, dipyridamole 10 μM; for inhibition of Compound B-induced JNK1 activation: SW480 cells pre-treated 2 μM for 2 hours, then Compound B 1 or 10 μM for one hour
Experimental: The cells were lysed, JNK1 immunoprecipitated with an anti-JNK1 antibody, and the immunoprecipitate (“IP”) assayed for in vitro kinase activity with GST-c-Jun(1-79) as the substrate. The experiments were repeated three times with similar results. Fold activation was measured using a Phosphor Imager.
FIG. 1B: SW480 cells were treated with Compound A (1 μM) for the indicated time periods and in vitro JNK1 kinase activity was determined as described above.
FIG. 2A SW480 cells were treated with either DMSO (−) or Compound A, 0.1 μM; dbcGMP, 500 μM; YC-1, 50 μM; MY-5445, 50 μM; dipyridamole, 10 μM or dbcAMP, 500 μM for one hour. The cells were lysed, JNK1 immunoprecipitated, and the IP assayed for in vitro kinase activity as described in FIG. 1A.
FIG. 2B SW480 cells were pre-treated with either DMSO, KT5720 (2 μM) or Rp-8-pCPT-cGMPS (2 μM) for 2 hours and then treated with Compound B (0, 1 or 10 μM) for one hour. The cells were lysed and assayed for JNK1 activation in the IP as described above.
These concentrations were chosen since they provided optimal induction of apoptosis. Endogenous JNK1 was immunoprecipitated with anti-JNK1 antibody and in vitro kinase assays were performed with GST-c-Jun(1-79) as the substrate. […]
However, the precise role of PKG in signal transduction pathways is not known. […] As a control, KT5720 was used as a protein kinase A (“PKA”)-specific inhibitor. SW480 cells were treated with either DMSO, KT5720 (2 μM) or Rp-8-pCPT-cGMPS (2 μM) for 2 hours and then treated with either DMSO or Compound B (1 or 10 μM) for one hour. Cell extracts were collected and assayed for JNK1 activation.

[4] = system: PARP in SW480 cells; experiment: PARP cleavage by Western blot; type: cell-based, human; conditions: SW480 cells pre-incubated 2 μM for 2 hours, then Compound A 1 μM 2 days
Experimental: SW480 cells were pre-treated with either DMSO (−) or Rp-8-pCPT-cGMPS (2 μM) for 2 hours and then treated with either DMSO (−) or Compound A (1 μM). Both the floating and attached cells were collected after 2 days, and the cell lysates were assayed for PARP cleavage by Western blotting with anti-PARP antibody. Fold increase in PARP cleavage was measured by densitometry of the 85 kD fragment.
Finally, we investigated whether activation of the PKG pathway is required for the induction of apoptosis by SAANDs. SW480 cells were treated with either DMSO or the PKG inhibitor Rp-8-pCPT-cGMPS (2 μM) for 2 hours and then the cells were treated with either DMSO or Compound A (1 μM) for 2 days. Both the floating and attached cells were collected, and the cell lysates were assayed for poly (ADP-ribose) polymerase (PARP) cleavage by Western blotting with an anti-PARP antibody. PARP is a 116 kD nuclear enzyme that converts NAD to nicotinamide and protein-linked ADP-ribose polymers, which are important for DNA repair and genomic maintenance. In cells that are undergoing apoptosis the 116 kD PARP protein is cleaved by caspase-3 into 85 and 25 kD fragments, thus resulting in loss of normal PARP function. This inactivation of PARP apparently prevents depletion of cellular levels of NAD and ATP, which are thought to be required for later events in apoptosis.

[5] = target: native bovine PDE5 (Bos taurus, UniProt Q28156); conditions: read-out: Kd of cGMP binding; cited from earlier work
[6] = at high concentration (100 μM) against cGMP 2 μM

T1 sequence (O76074 46-539 limits assumed): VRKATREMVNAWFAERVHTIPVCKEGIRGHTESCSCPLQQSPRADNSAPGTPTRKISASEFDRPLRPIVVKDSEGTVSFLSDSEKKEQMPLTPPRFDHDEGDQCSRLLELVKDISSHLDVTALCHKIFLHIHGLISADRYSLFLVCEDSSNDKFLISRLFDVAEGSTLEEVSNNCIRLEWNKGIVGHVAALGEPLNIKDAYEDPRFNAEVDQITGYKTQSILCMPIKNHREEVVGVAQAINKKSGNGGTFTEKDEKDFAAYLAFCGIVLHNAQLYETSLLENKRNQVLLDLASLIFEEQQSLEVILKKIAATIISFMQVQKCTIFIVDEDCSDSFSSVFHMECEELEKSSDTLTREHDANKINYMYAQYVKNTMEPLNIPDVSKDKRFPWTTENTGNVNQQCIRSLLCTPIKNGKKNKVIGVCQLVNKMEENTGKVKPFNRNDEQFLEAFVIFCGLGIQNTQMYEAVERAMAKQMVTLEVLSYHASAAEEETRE

competition with cGMP for the cGMP binding sites of GST-cGB-PDE5 ([1]; 3H-cGMP 2 μM, 22° C., 1 hour): did not compete with cGMP in binding
SMILES: Nc1ccn([C@@H]2O[C@@H]3COP(=O)(O)O[C@H]3[C@H]2O)c(=O)n1 [cCMP, cyclic CMP]

SMILES: O=C([O-])C1CCN(c2nc(NCc3ccc4c(c3)OCO4)c3cc(Cl)ccc3n2)CC1.[Na+] [Compound E4021]
PKG activity relative to control [2]: do not exhibit PKG activation relative to control
competition with cGMP for the cGMP binding sites of GST-cGB-PDE5 ([1]; 3H-cGMP 2 μM, 22° C., 1 hour): None of the PDE5 inhibitors showed any competition with cGMP

SMILES: OCc1ccc(-c2nn(Cc3ccccc3)c3ccccc23)o1 [YC-1]
JNK1 activation by cGMP modulators [3]: also activated JNK1

SMILES: CCCCCCOC(=O)[C@]1(O)C[C@@H]2O[C@@]1(C)n1c3ccccc3c3c4c(c5c6ccccc6n2c5c31)C(=O)NC4 [KT5720]
inhibition of Compound B-induced JNK1 activation [3]: no inhibitory activity

SMILES: CCCC(=O)Nc1nc2c(ncn2C2OC3COP(=O)([O-])OC3C2OC(=O)CCC)c(=O)[nH]1.[Na+] (stereo not drawn) [dbcGMP, Dibutyrylguanosine 3′:5′-cyclic monophosphate]
JNK1 activation by cGMP modulators [3]: activated JNK1

competition with cGMP for the cGMP binding sites of GST-cGB-PDE5 ([1]; 3H-cGMP 2 μM, 22° C., 1 hour): did not compete with cGMP in binding
SMILES: O=c1ccn([C@@H]2O[C@@H]3COP(=O)(O)O[C@H]3[C@H]2O)c(=O)[nH]1 [cUMP, cyclic UMP]

SMILES: Nc1nc2c(nc(Sc3ccc(Cl)cc3)n2[C@@H]2O[C@@H]3CO[P@@](=O)(S)O[C@H]3[C@H]2O)c(=O)[nH]1 [Rp-8-pCPT-cGMP, reference compound]
inhibition of Compound B-induced JNK1 activation [3]: strongly inhibited
inhibition of Compound A-induced PARP cleavage [4]: significantly inhibited

competition with cGMP for the cGMP binding sites of GST-cGB-PDE5 ([1]; 3H-cGMP 2 μM, 22° C., 1 hour): did not compete with cGMP in binding
SMILES: CCCCOC1C2OP(=O)(O)OCC2OC1n1cnc2c(N)ncnc21 (stereo not drawn) [2′-O-butyl-cAMP]

SMILES: Clc1cccc(Nc2nnc(-c3ccccc3)c3ccccc23)c1 [MY-5445, 1-(3-chloroanilino)-4-phenyphthalazine]
JNK1 activation by cGMP modulators [3]: also activated JNK1

SMILES: CCCOc1ccccc1-c1nc2nn[nH]c2c(=O)[nH]1 [zaprinast]
competition with cGMP for the cGMP binding sites of GST-cGB-PDE5 ([1]; 3H-cGMP 2 μM, 22° C., 1 hour): None of the PDE5 inhibitors showed any competition with cGMP

SMILES: OCCN(CCO)c1nc(N2CCCCC2)c2nc(N(CCO)CCO)nc(N3CCCCC3)c2n1 [dipyridamole]
JNK1 activation by cGMP modulators [3]: also activated JNK1

competition with cGMP for the cGMP binding sites of GST-cGB-PDE5 [1, 6]: can partially compete with cGMP
SMILES: O=c1[nH]cnc2c1ncn2[C@@H]1O[C@@H]2COP(=O)(O)O[C@H]2[C@H]1O [Cyclic IMP, cyclic IMP]

competition with cGMP for the cGMP binding sites of GST-cGB-PDE5 [1, 6]: can partially compete with cGMP
SMILES: Nc1nc2c(nc(Br)n2[C@@H]2O[C@@H]3COP(=O)(O)O[C@H]3[C@H]2O)c(=O)[nH]1 [Compound 8-bromo-cGMP, 8-bromo-cGMP]

SMILES: Nc1ncnc2c1ncn2[C@@H]1O[C@@H]2COP(=O)(O)O[C@H]2[C@H]1O [Cyclic AMP]
competition with cGMP for the cGMP binding sites of GST-cGB-PDE5 [1]: did not compete with cGMP in binding

SMILES: CCCC(=O)Nc1ncnc2c1ncn2[C@@H]1O[C@@H]2COP(=O)(O)O[C@H]2[C@H]1OC(=O)CCC [dbcAMP, dibutyryladenosine 3′:5′-cyclic monophosphate]
JNK1 activation by cGMP modulators [3]: inactive

competition with cGMP for the cGMP binding sites of GST-cGB-PDE5 ([1]; 3H-cGMP 2 μM, 22° C., 1 hour): did not compete with cGMP in binding
SMILES: CCCCOC1C2OP(=O)(O)OCC2OC1n1cnc2c(=O)[nH]c(N)nc21 (stereo not drawn) [2′-O-butyl-cGMP]

Kd [1]: 1600 ± 200 nM
competition with cGMP for the cGMP binding sites of GST-cGB-PDE5 ([1]; 3H-cGMP 2 μM, 22° C., 1 hour): specifically binds GST-cGB-PDE5 protein
SMILES: Nc1nc2c(ncn2[C@@H]2O[C@@H]3COP(=O)(O)O[C@H]3[C@H]2O)c(=O)[nH]1 [cGMP, cyclic 3′,5′-guanosine monophosphate]
Kd [5]: 1300 nM
